Earlier results on one compound are cited in patent US20110311626A1, “CONTROLLED RELEASE COMPOSITIONS COMPRISING ANTI-CHOLINERGIC DRUGS” (priority 2009, published 2011).

In general, Tmax refers to the time from dosing to the highest level.

The conditions of this series: currently marketed formulation, blood plasma, after administration.

`CCN(CC)CCOC(=O)C1(C2CCCCC2)CCCCC1` [dicyclomine, bicyclohexyl-1-carboxylic acid, 2-(diethylamino) ethyl ester]: the time of peak concentration (Tmax) was 1.5 to 3 h.
